# Target: T1, recombinant rat AR LBD (Rattus norvegicus, UniProt P15207)
# T1 construct: recombinant rat AR LBD
# T1 sequence (P15207 651-882 limits assumed): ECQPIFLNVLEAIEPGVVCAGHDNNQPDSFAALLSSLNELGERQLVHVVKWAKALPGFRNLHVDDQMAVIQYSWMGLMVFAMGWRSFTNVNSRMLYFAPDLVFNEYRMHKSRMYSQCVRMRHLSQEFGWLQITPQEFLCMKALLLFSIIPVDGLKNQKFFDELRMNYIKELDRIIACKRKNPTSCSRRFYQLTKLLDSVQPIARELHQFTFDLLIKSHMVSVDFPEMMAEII
# Test: competition fluorescence polarization binding assay
# Conditions: relative binding affinity; ratio of Kd of test compound to Kd of DHT multiplied by 100
# Description: Binding affinity of the synthesized ligands was evaluated by competition fluorescence polarization assay using recombinant rat AR LBD, and the results summarized in Table 1. All ligands with a bulky right-hand extension, such as compounds 18-20 in FIG. 5, performed poorly in this assay, with even the best compounds binding AR only weakly. […] In Table 1, RBA stands for relative binding affinity, and is defined as the ratio of Kd of the test compound to Kd of DHT multiplied by 100.
row,SMILES,RBA (DHT = 100)
1,"CC12Cc3cn[nH]c3C=C1CCCC2CCCO (stereo not drawn) [Compound 12, 3-(4α-Methyl-4,4α,5,6,7,8-hexahydro-1H-benzo[f]indazol-5-yl)propan-1-ol]",1
2,"CC12Cc3cnn(-c4ccc(F)cc4)c3C=C1CCCC2CCCO (stereo not drawn) [Compound 16, 3-(1-[4-Fluorophenyl]-4α-Methyl-4,4α,5,6,7,8-hexahydro-1H-benzo[f]indazol-5-yl)propan-1-ol]",19
3,"CC12Cc3cn[nH]c3C=C1CCCC2CCc1ccc(CO)cc1 (centres unmarked) [Compound 18, {4-[2-(4a-Methyl-4,4a,5,6,7,8-hexahydro-1H-benzo[f]indazol-5-yl)-ethyl]-phenyl}-methanol]",<0.1
4,"CC12Cc3cnoc3C=C1CCCC2CCc1ccc(CO)cc1 (centres unmarked) [Compound 19, {4-[2-(4a-Methyl-4,4a,5,6,7,8-hexahydro-naphtho[2,3-d]isoxazol-5-yl)-ethyl]-phenyl}-methanol]",<0.1
5,CC12Cc3cnn(-c4ccc(F)cc4)c3C=C1CCCC2CCc1ccc(CO)cc1 (centres unmarked) [Compound 20],0.12

# Source: US7645885B2, “Non-steroidal antiandrogens” (The Regents of the University of California, priority 2005, dated 2010)
